Values joined by “and” are separate entries in the source; they are usually repeats but may differ in a detail not shown here. Equal entries are not always repeated. Inconclusive results and toxic doses are left out.
Test system: CD2F1 mice, L1210 leukemia ip, survival T/C
Experiment: NCI In Vivo Anticancer Drug Screen. Data for tumor model L1210 Leukemia (intraperitoneal) in CD2F1 (CDF1) mice
Conditions: endpoint: mean survival time, higher = longer survival
Procedure, shortened: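 Each value reflects a quotient of treated over vehicle control outcomes in mice with a transplanted tumor.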

[1] = dose: 100.0 mg/kg/injection, schedule: Q04DX003 (ip), vehicle: saline with Tween-80
[2] = dose: 200.0 mg/kg/injection, schedule: Q04DX003 (ip), vehicle: saline with Tween-80
[3] = dose: 400.0 mg/kg/injection, schedule: Q04DX003 (ip), vehicle: saline with Tween-80
[4] = dose: 50.0 mg/kg/injection, schedule: Q01DX009 (ip), vehicle: saline
[5] = dose: 50.0 mg/kg/injection, schedule: Q01DX009 (ip), vehicle: Klucel (hydroxypropylcellulose) (HPC)
[6] = dose: 100.0 mg/kg/injection, schedule: Q01DX009 (ip), vehicle: saline with Tween-80
[7] = dose: 200.0 mg/kg/injection, schedule: Q01DX009 (ip), vehicle: saline with Tween-80
[8] = dose: 400.0 mg/kg/injection, schedule: Q01DX009 (ip), vehicle: saline with Tween-80
[9] = dose: 100.0 mg/kg/injection, schedule: Q04DX003 (ip), vehicle: saline

O=C(O/N=C(/CN1CCOCC1)c1ccc(Cl)cc1)c1ccccc1 was tested, and the T/C [1] was 97 % of control, the T/C [2] was 94 % of control and the T/C [3] was 90 % of control.

In the case of CC(C)(C)NC[Si](C)(C)C, the T/C (dose: 25.0 mg/kg/injection, schedule: Q01DX009 (ip), vehicle: saline) is reported as 94 % of control and the T/C [4] is reported as 101 % of control.

In the case of CCCCCCCCNCCNCCCCCCCC, the T/C (dose: 3.75 mg/kg/injection, schedule: Q01DX009 (ip), vehicle: Klucel (hydroxypropylcellulose) (HPC)) is reported as 95 % of control, the T/C (dose: 7.5 mg/kg/injection, schedule: Q01DX009 (ip), vehicle: Klucel (hydroxypropylcellulose) (HPC)) is reported as 95 % of control and the T/C (dose: 15.0 mg/kg/injection, schedule: Q01DX009 (ip), vehicle: Klucel (hydroxypropylcellulose) (HPC)) is reported as 87 % of control.

For N=P(N[P+](N)(c1ccccc1)c1ccccc1)(c1ccccc1)c1ccccc1, the T/C (dose: 1.56 mg/kg/injection, schedule: Q01DX009 (ip), vehicle: Klucel (hydroxypropylcellulose) (HPC)) was 103 % of control, the T/C (dose: 3.12 mg/kg/injection, schedule: Q01DX009 (ip), vehicle: Klucel (hydroxypropylcellulose) (HPC)) was 103 % of control and the T/C (dose: 6.25 mg/kg/injection, schedule: Q01DX009 (ip), vehicle: Klucel (hydroxypropylcellulose) (HPC)) was 91 % of control and 103 % of control.

In the case of CC([NH-])C([NH-])O.O=S(=O)(O)O.[Pt+2] (stereo not given), the T/C (dose: 12.5 mg/kg/injection, schedule: Q04DX003 (ip), vehicle: saline) is reported as 166 % of control and the T/C (dose: 25.0 mg/kg/injection, schedule: Q04DX003 (ip), vehicle: saline) is reported as 103 % of control.

In the case of CC(=O)Nc1cc(NC(C)=O)cc(N(CCCl)CCCl)c1, the T/C (dose: 12.5 mg/kg/injection, schedule: Q01DX005 (ip), vehicle: water) is reported as 100 % of control, the T/C (dose: 25.0 mg/kg/injection, schedule: Q01DX005 (ip), vehicle: water) is reported as 106 % of control and the T/C (dose: 50.0 mg/kg/injection, schedule: Q01DX005 (ip), vehicle: water) is reported as 101 % of control.

In the case of CN(C)Cc1cccc2ccccc12, the T/C (dose: 12.5 mg/kg/injection, schedule: Q01DX009 (ip), vehicle: Klucel (hydroxypropylcellulose) (HPC)) is reported as 109 % of control, the T/C (dose: 25.0 mg/kg/injection, schedule: Q01DX009 (ip), vehicle: Klucel (hydroxypropylcellulose) (HPC)) is reported as 109 % of control and the T/C [5] is reported as 97 % of control.

With CC(=O)OC1CCC2(C)C(=CCC3C2CCC2(C)C(C(C)CCCC(C)C)CCC32)C1 (stereo not given) the T/C [5] was 96 % of control, the T/C (dose: 100.0 mg/kg/injection, schedule: Q01DX009 (ip), vehicle: Klucel (hydroxypropylcellulose) (HPC)) was 93 % of control and the T/C (dose: 200.0 mg/kg/injection, schedule: Q01DX009 (ip), vehicle: Klucel (hydroxypropylcellulose) (HPC)) was 86 % of control.

With CCCCCCCCCSCC the T/C [6] was 100 % of control, the T/C [7] was 100 % of control and the T/C [8] was 88 % of control.

With Clc1nnc(-c2ccccc2)c(-c2ccccc2)n1 the T/C [9] was 91 % of control.

CC(C)CCCC(C)C1CCC2C3CCC4CC(=O)C=CC4(C)C3CCC12C (stereo not given) was tested, and the T/C (dose: 75.0 mg/kg/injection, schedule: Q04DX003 (sc), vehicle: steriod suspending solution) was 100 % of control, the T/C (dose: 150.0 mg/kg/injection, schedule: Q04DX003 (sc), vehicle: steriod suspending solution) was 101 % of control and the T/C (dose: 300.0 mg/kg/injection, schedule: Q04DX003 (sc), vehicle: steriod suspending solution) was 101 % of control.

In the case of CCCC1(CCC)NC(=O)NC1=O, the T/C (dose: 100.0 mg/kg/injection, schedule: Q04DX003 (ip), vehicle: other) is reported as 102 % of control and the T/C (dose: 200.0 mg/kg/injection, schedule: Q04DX003 (ip), vehicle: other) is reported as 102 % of control.

For N#CC(CCC(=O)O)(CCC(=O)O)c1ccccc1, the T/C [6] was 96 % of control, the T/C [7] was 96 % of control and the T/C [8] was 96 % of control.

With CCOC(=O)CC(=O)N(CC)CC the T/C (dose: 100.0 mg/kg/injection, schedule: Q01DX009 (ip), vehicle: saline) was 98 % of control, the T/C [9] was 99 % of control and the T/C (dose: 200.0 mg/kg/injection, schedule: Q01DX009 (ip), vehicle: saline) was 93 % of control. For the same molecule, the T/C (dose: 200.0 mg/kg/injection, schedule: Q04DX003 (ip), vehicle: saline) was 95 % of control, the T/C (dose: 400.0 mg/kg/injection, schedule: Q01DX009 (ip), vehicle: saline) was 96 % of control and the T/C (dose: 400.0 mg/kg/injection, schedule: Q04DX003 (ip), vehicle: saline) was 108 % of control.

For Cc1cc2nc(C(=C(c3nc4cc(C)c(C)cc4[nH]3)c3nc4cc(C)c(C)cc4[nH]3)c3nc4cc(C)c(C)cc4[nH]3)[nH]c2cc1C, the T/C [1] was 97 % of control, the T/C [2] was 94 % of control and the T/C [3] was 89 % of control.

With CN(/N=C/c1ccccc1)C(=S)Nc1ccccc1 the T/C (dose: 31.25 mg/kg/injection, schedule: Q04DX003 (ip), vehicle: Klucel (hydroxypropylcellulose) (HPC)) was 101 % of control, the T/C (dose: 62.5 mg/kg/injection, schedule: Q04DX003 (ip), vehicle: Klucel (hydroxypropylcellulose) (HPC)) was 103 % of control and the T/C (dose: 125.0 mg/kg/injection, schedule: Q04DX003 (ip), vehicle: Klucel (hydroxypropylcellulose) (HPC)) was 100 % of control.

For Oc1ccccc1C=NCCN=Cc1ccccc1O, the T/C [1] was 90 % of control, the T/C [2] was 100 % of control and the T/C [3] was 92 % of control.

For Nc1nc(N)nc(-c2ccccn2)n1, the T/C [4] was 112 % of control.

Source: PubChem BioAssay AID256 (DTP/NCI, 2004)
